ChEMBL document CHEMBL2331210, “New 2-benzylsulfanyl-nicotinic acid based 1,3,4-oxadiazoles: their synthesis and biological evaluation” (2013)
In brackets after ≈: the same amount, converted by molar mass.

Legend:
UO-31 = assay: Antitumor activity against human UO31 cells assessed as cell growth at 0.1 uM; type: functional; details: read-out: Activity
786-0 = assay: Antitumor activity against human 786-0 cells assessed as cell growth at 0.1 uM; type: functional; details: read-out: Activity
TK-10 = assay: Antitumor activity against human TK10 cells assessed as cell growth at 0.1 uM; type: functional; details: read-out: Activity
SN12C = assay: Antitumor activity against human SN12C cells assessed as cell growth at 0.1 uM; type: functional; details: read-out: Activity
RXF 393 = assay: Antitumor activity against human RXF393 cells assessed as cell growth at 0.1 uM; type: functional; details: read-out: Activity
ACHN = assay: Antitumor activity against human ACHN cells assessed as cell growth at 0.1 uM; type: functional; details: read-out: Activity
CAKI-1 = assay: Antitumor activity against human CAKI-1 cells assessed as cell growth at 0.1 uM; type: functional; details: read-out: Activity
A498 = assay: Antitumor activity against human A498 cells assessed as cell growth at 0.1 uM; type: functional; details: read-out: Activity
SK-OV-3 = assay: Antitumor activity against human SKOV3 cells assessed as cell growth at 0.1 uM; type: functional; details: read-out: Activity
NCI/ADR-RES = assay: Antitumor activity against human NCI/ADR-RES cells assessed as cell growth at 0.1 uM; type: functional; details: read-out: Activity
OVCAR-8 = assay: Antitumor activity against human OVCAR8 cells assessed as cell growth at 0.1 uM; type: functional; details: read-out: Activity
OVCAR-5 = assay: Antitumor activity against human OVCAR5 cells assessed as cell growth at 0.1 uM; type: functional; details: read-out: Activity
OVCAR-3 = assay: Antitumor activity against human OVCAR3 cells assessed as cell growth at 0.1 uM; type: functional; details: read-out: Activity
OVCAR-4 = assay: Antitumor activity against human OVCAR4 cells assessed as cell growth at 0.1 uM; type: functional; details: read-out: Activity
IGROV-1 = assay: Antitumor activity against human IGROV1 cells assessed as cell growth at 0.1 uM; type: functional; details: read-out: Activity
UACC-62 = assay: Antitumor activity against human UACC62 cells assessed as cell growth at 0.1 uM; type: functional; details: read-out: Activity
UACC-257 = assay: Antitumor activity against human UACC257 cells assessed as cell growth at 0.1 uM; type: functional; details: read-out: Activity
SK-MEL-5 = assay: Antitumor activity against human SK-MEL-5 cells assessed as cell growth at 0.1 uM; type: functional; details: read-out: Activity
SK-MEL-28 = assay: Antitumor activity against human SK-MEL-28 cells assessed as cell growth at 0.1 uM; type: functional; details: read-out: Activity
MDA-MB-435 = assay: Antitumor activity against human MDA-MB-435 cells assessed as cell growth at 0.1 uM; type: functional; details: read-out: Activity
M14 = assay: Antitumor activity against human M14 cells assessed as cell growth at 0.1 uM; type: functional; details: read-out: Activity
Malme-3M = assay: Antitumor activity against human MALME-3M cells assessed as cell growth at 0.1 uM; type: functional; details: read-out: Activity
LOX IMVI = assay: Antitumor activity against human LOXIMVI cells assessed as cell growth at 0.1 uM; type: functional; details: read-out: Activity
U-251 = assay: Antitumor activity against human U251 cells assessed as cell growth at 0.1 uM; type: functional; details: read-out: Activity
SNB-75 = assay: Antitumor activity against human SNB75 cells assessed as cell growth at 0.1 uM; type: functional; details: read-out: Activity
SF-539 = assay: Antitumor activity against human SF539 cells assessed as cell growth at 0.1 uM; type: functional; details: read-out: Activity
SNB-19 = assay: Antitumor activity against human SNB19 cells assessed as cell growth at 0.1 uM; type: functional; details: read-out: Activity
SF-295 = assay: Antitumor activity against human SF295 cells assessed as cell growth at 0.1 uM; type: functional; details: read-out: Activity
SF-268 = assay: Antitumor activity against human SF268 cells assessed as cell growth at 0.1 uM; type: functional; details: read-out: Activity
COLO 205 = assay: Antitumor activity against human COLO205 cells assessed as cell growth at 0.1 uM; type: functional; details: read-out: Activity
SW-620 = assay: Antitumor activity against human SW620 cells assessed as cell growth at 0.1 uM; type: functional; details: read-out: Activity
KM12 = assay: Antitumor activity against human KM12 cells assessed as cell growth at 0.1 uM; type: functional; details: read-out: Activity
HCT-15 = assay: Antitumor activity against human HCT15 cells assessed as cell growth at 0.1 uM; type: functional; details: read-out: Activity
HT-29 = assay: Antitumor activity against human HT-29 cells assessed as cell growth at 0.1 uM; type: functional; details: read-out: Activity
HCT-116 = assay: Antitumor activity against human HCT116 cells assessed as cell growth at 0.1 uM; type: functional; details: read-out: Activity
[1] = Antitumor activity against human HCC2998 cells assessed as cell growth at 0.1 uM; type: functional; details: HCC 2998, read-out: Activity
NCI-H460 = assay: Antitumor activity against human NCI-H460 cells assessed as cell growth at 0.1 uM; type: functional; details: read-out: Activity
NCI-H522 = assay: Antitumor activity against human NCI-H522 cells assessed as cell growth at 0.1 uM; type: functional; details: read-out: Activity
NCI-H23 = assay: Antitumor activity against human NCI-H23 cells assessed as cell growth at 0.1 uM; type: functional; details: read-out: Activity
HOP-62 = assay: Antitumor activity against human HOP62 cells assessed as cell growth at 0.1 uM; type: functional; details: read-out: Activity
HOP-92 = assay: Antitumor activity against human HOP92 cells assessed as cell growth at 0.1 uM; type: functional; details: read-out: Activity
[2] = Antitumor activity against human EKVX cells assessed as cell growth at 0.1 uM; type: functional; details: read-out: Activity
A549 = assay: Antitumor activity against human A549/ATCC cells assessed as cell growth at 0.1 uM; type: functional; details: read-out: Activity
SR = assay: Antitumor activity against human SR cells assessed as cell growth at 0.1 uM; type: functional; details: read-out: Activity
MOLT-4 = assay: Antitumor activity against human MOLT4 cells assessed as cell growth at 0.1 uM; type: functional; details: read-out: Activity
RPMI-8226 = assay: Antitumor activity against human RPMI8226 cells assessed as cell growth at 0.1 uM; type: functional; details: read-out: Activity
K562 = assay: Antitumor activity against human K562 cells assessed as cell growth at 0.1 uM; type: functional; details: read-out: Activity
HL-60 = assay: Antitumor activity against human HL60(TB) cells assessed as cell growth at 0.1 uM; type: functional; details: read-out: Activity
[3] = tested on: Mycobacterium tuberculosis; assay: Antitubercular activity against Mycobacterium tuberculosis H37Rv assessed as growth inhibition after 12 to 28 days by L.J. agar MIC method; type: functional
Aspergillus clavatus = assay: Antimicrobial activity against Aspergillus clavatus MTCC 1323 assessed as growth inhibition measured after overnight incubation by broth dilution method; type: functional
Aspergillus niger = assay: Antimicrobial activity against Aspergillus niger MTCC 282 assessed as growth inhibition measured after overnight incubation by broth dilution method; type: functional
Candida albicans = assay: Antimicrobial activity against Candida albicans MTCC 227 assessed as growth inhibition measured after overnight incubation by broth dilution method; type: functional
Pseudomonas aeruginosa = assay: Antimicrobial activity against Pseudomonas aeruginosa MTCC 2488 assessed as growth inhibition measured after overnight incubation by broth dilution method; type: functional
Escherichia coli = assay: Antimicrobial activity against Escherichia coli MTCC 443 assessed as growth inhibition measured after overnight incubation by broth dilution method; type: functional
Streptococcus pyogenes = assay: Antimicrobial activity against Streptococcus pyogenes MTCC 442 assessed as growth inhibition measured after overnight incubation by broth dilution method; type: functional
Staphylococcus aureus = assay: Antimicrobial activity against Staphylococcus aureus MTCC 96 assessed as growth inhibition measured after overnight incubation by broth dilution method; type: functional
MDA-MB-468 = assay: Antitumor activity against human MDA-MB-468 cells assessed as cell growth at 0.1 uM; type: functional; details: read-out: Activity
T47D = assay: Antitumor activity against human T47D cells assessed as cell growth at 0.1 uM; type: functional; details: read-out: Activity
[4] = Antitumor activity against human Hs 578T cells assessed as cell growth at 0.1 uM; type: functional; details: read-out: Activity
BT-549 = assay: Antitumor activity against human BT549 cells assessed as cell growth at 0.1 uM; type: functional; details: read-out: Activity
MDA-MB-231 = assay: Antitumor activity against human MDA-MB-231/ATCC cells assessed as cell growth at 0.1 uM; type: functional; details: read-out: Activity
DU-145 = assay: Antitumor activity against human DU145 cells assessed as cell growth at 0.1 uM; type: functional; details: read-out: Activity
MCF7 = assay: Antitumor activity against human MCF7 cells assessed as cell growth at 0.1 uM; type: functional; details: read-out: Activity
PC-3 = assay: Antitumor activity against human PC3 cells assessed as cell growth at 0.1 uM; type: functional; details: read-out: Activity
SK-MEL-2 = assay: cells; details: Homo sapiens, SK-MEL-2, read-out: Activity
Description: Antitumor activity against human SK-MEL-2 cells assessed as cell growth at 0.1 uM

SMILES: CN1CCN(C(=O)CSc2nnc(-c3cccnc3SCc3ccccc3)o2)CC1
- growth at 0.1 µM (UO-31): 30.9%
- growth at 0.1 µM (786-0): 109%
- growth at 0.1 µM (TK-10): 115%
- growth at 0.1 µM (SN12C): 64.2%
- growth at 0.1 µM (RXF 393): 89.1%
- growth at 0.1 µM (ACHN): 80.8%
- growth at 0.1 µM (CAKI-1): 93.4%
- growth at 0.1 µM (A498): 78.5%
- growth at 0.1 µM (SK-OV-3): 101%
- growth at 0.1 µM (NCI/ADR-RES): 89.2%
- growth at 0.1 µM (OVCAR-8): 97.7%
- growth at 0.1 µM (OVCAR-5): 101%
- growth at 0.1 µM (OVCAR-3): 92%
- growth at 0.1 µM (OVCAR-4): 57.4%
- growth at 0.1 µM (IGROV-1): 75.3%
- growth at 0.1 µM (UACC-62): 76.8%
- growth at 0.1 µM (UACC-257): 96.8%
- growth at 0.1 µM (SK-MEL-5): 84.8%
- growth at 0.1 µM (SK-MEL-28): 107%
- growth at 0.1 µM (MDA-MB-435): 93.8%
- growth at 0.1 µM (M14): 99.6%
- growth at 0.1 µM (Malme-3M): 97.1%
- growth at 0.1 µM (LOX IMVI): 90.3%
- growth at 0.1 µM (U-251): 83.9%
- growth at 0.1 µM (SNB-75): 83%
- growth at 0.1 µM (SF-539): 98.6%
- growth at 0.1 µM (SNB-19): 82%
- growth at 0.1 µM (SF-295): 89.6%
- growth at 0.1 µM (SF-268): 67.5%
- growth at 0.1 µM (COLO 205): 110%
- growth at 0.1 µM (SW-620): 97.2%
- growth at 0.1 µM (KM12): 72.8%
- growth at 0.1 µM (HCT-15): 86.5%
- growth at 0.1 µM (HT-29): 93.7%
- growth at 0.1 µM (HCT-116): 94.7%
- growth at 0.1 µM [1]: 90.5%
- growth at 0.1 µM (NCI-H460): 90.1%
- growth at 0.1 µM (NCI-H522): 71.3%
- growth at 0.1 µM (NCI-H23): 87.6%
- growth at 0.1 µM (HOP-62): 97%
- growth at 0.1 µM (HOP-92): 43.3%
- growth at 0.1 µM [2]: 70.7%
- growth at 0.1 µM (A549): 68.5%
- growth at 0.1 µM (SR): 79.8%
- growth at 0.1 µM (MOLT-4): 48.2%
- growth at 0.1 µM (RPMI-8226): 61.5%
- growth at 0.1 µM (K562): 83%
- growth at 0.1 µM (HL-60): 70.3%
- growth inhibition (GI) [3]: 97%
- MIC ([3]; Mycobacterium tuberculosis, H37Rv): 250 mg/L (≈ 566 µM)
- MIC (Aspergillus clavatus): 1000 mg/L (≈ 2260 µM)
- MIC (Aspergillus niger): 500 mg/L (≈ 1130 µM)
- MIC (Candida albicans): 500 mg/L (≈ 1130 µM)
- MIC (Pseudomonas aeruginosa): 200 mg/L (≈ 453 µM)
- MIC (Escherichia coli): 100 mg/L (≈ 226 µM)
- MIC (Streptococcus pyogenes): 125 mg/L (≈ 283 µM)
- MIC (Staphylococcus aureus): 250 mg/L (≈ 566 µM)
- growth at 0.1 µM (MDA-MB-468): 74.8%
- growth at 0.1 µM (T47D): 55.3%
- growth at 0.1 µM [4]: 93.2%
- growth at 0.1 µM (BT-549): 95.4%
- growth at 0.1 µM (MDA-MB-231): 56.5%
- growth at 0.1 µM (DU-145): 81.7%
- growth at 0.1 µM (MCF7): 76.7%
- growth at 0.1 µM (PC-3): 57.4%
- growth at 0.1 µM (SK-MEL-2): 101%
